From patent publication US20230165251A1, “SUBSTITUTED TOLYL FUNGICIDES AND THEIR MIXTURES” (FMC Corporation, priority 2020, published 2023)

Assays:
[1] = test system: Puccinia recondita f. sp. tritici; test: Test B: preventive spray on wheat seedlings, wheat leaf rust; type: in vivo; conditions: for pest or weed control at 10 ppm: Puccinia recondita, 192 h, read-out: Test B disease control rating
Description: (§1) General protocol for preparing test suspensions for Tests A-F: the test compounds were first dissolved in acetone in an amount equal to 3% of the final volume and then suspended at the desired concentration (in ppm) in acetone and purified water (50/50 mix by volume) containing 250 ppm of the surfactant PEG400 (polyhydric alcohol esters). The resulting test suspensions were then used in Tests A-F.
The test solution was sprayed to the point of run-off on wheat seedlings. The following day the seedlings were inoculated with a spore suspension of Puccinia recondita f. sp. tritici (the causal agent of wheat leaf rust) and incubated in a saturated atmosphere at 20° C. for 24 h, and then moved to a growth chamber at 20° C. for 7 days, after which time disease ratings were made.
(§2) A rating of 100 indicates 100% disease control and a rating of 0 indicates no disease control (relative to the controls). A dash (-) indicates the compound was not tested.

Phakopsora pachyrhizi = test: Test D: preventive spray on soybean seedlings, Asian soybean rust; type: in vivo; conditions: Rate 10 ppm; for pest or weed control at 10 ppm: Phakopsora pachyrhizi, 216 h, read-out: Test D disease control rating
Description: as §1
The test solution was sprayed to the point of run-off on soybean seedlings. The following day the seedlings were inoculated with a spore suspension of Phakopsora pachyrhizi (the causal agent of Asian soybean rust) and incubated in a saturated atmosphere at 22° C. for 24 h and then moved to a growth chamber at 22° C. for 8 days, after which time visual disease ratings were made.
as §2

Compound | pest or weed control at 10 ppm ([1]; Rate 10 ppm) [%] | pest or weed control at 10 ppm (Phakopsora pachyrhizi) [%] | Test B disease control rating ([1]; Rate 10 ppm) [%] | Test D disease control rating (Phakopsora pachyrhizi) [%] | Test B disease control rating ([1]; Rate 2 ppm) [%]
CO/N=C(\C)c1cc(F)c(-n2ccc(-c3ccc(C)c(CNC(=O)OC)c3)n2)c(F)c1 [Compound 83, methyl (E)-N-[[5-[1-[2,6-difluoro-4-[1-(methoxyimino)ethyl]phenyl]-1H-pyrazol-3-yl]-2-methylphenyl]methyl]carbamate] | 100 | 100 |  |  | 
COC(=O)NCc1cc(-c2ccn(-c3c(F)cc(C4CC4(F)F)cc3F)n2)ccc1C (stereo not drawn) [Compound 89, methyl N-[[5-[1-[4-(2,2-difluorocyclopropyl)-2,6-difluorophenyl]-1H-pyrazol-3-yl]-2-methylphenyl]methyl]carbamate] | 100 | 100 |  |  | 
CO/N=C(/C)c1cc(F)c(-n2ccc(-c3ccc(C)c(CNC(=O)OC)c3)n2)c(F)c1 [Compound 99, methyl (Z)-N-[[5-[1-[2,6-difluoro-4-[1-(methoxyimino)ethyl]phenyl]-1H-pyrazol-3-yl]-2-methylphenyl]methyl]carbamate] | 100 | 100 |  |  | 
COC(=O)NCc1cc(-c2ccn(-c3c(F)cc(C4OCCCO4)cc3F)n2)ccc1C [Compound 134] |  |  | 89 | 100 | 
CCC(C)c1cc(F)c(-n2ncc(-c3ccc(C)c(CNC(=O)OC)c3)n2)c(F)c1 (stereo not drawn) [Compound 139, methyl N-[[5-[2-[2,6-difluoro-4-(1-methylpropyl)phenyl]-2H-1,2,3-triazol-4-yl]-2-methylphenyl]methyl]carbamate] | 99 | 100 |  |  | 
COC(=O)NNc1cc(-c2ccn(-c3c(F)cccc3F)n2)ccc1C [Compound 154] | 0 | 25 |  |  | 
COC(=O)NNc1cc(-c2ccn(-c3c(F)cc(C(C)C)cc3F)n2)ccc1C [Compound 155] | 91 | 100 |  |  | 
COC(=O)NNc1cc(-c2ccn(-c3c(F)cc(C(F)(F)F)cc3F)n2)ccc1C [Compound 156] | 85 | 54 |  |  | 
COC(=O)NCc1cc(-c2ccn(-c3c(F)cc(OCC(F)(F)F)cc3F)n2)ccc1C [compound 22] |  |  | 99 | 100 | 
COC(=O)NCc1cc(-c2ccn(-c3c(F)cc(I)cc3SC)n2)ccc1C [compound 26] |  |  | 73 | 87 | 
COC(=O)NCc1cc(-c2ccn(-c3c(F)cc(SC)cc3F)n2)ccc1C [compound 27] |  |  | 99 | 100 | 
COC(=O)NCc1cc(-c2ccn(-c3c(F)cc(SC)cc3SC)n2)ccc1C [compound 28] |  |  | 0 | 100 | 
COC(=O)NCc1cc(-c2ccn(-c3c(F)cc(OC)cc3OC)n2)ccc1C [compound 34] |  |  | 28 | 96 | 
COC(=O)NCc1cc(-c2ccn(-c3c(C)cc([N+](=O)[O-])cc3C)n2)ccc1C [compound 35] |  |  | 0 | 0 | 
CNc1cc(F)c(-n2ccc(-c3ccc(C)c(CNC(=O)OC)c3)n2)c(F)c1 [compound 36] |  |  | 68 | 100 | 
methyl N-[[5-[1-[2,6-dichloro-4-(1,1-dimethylethyl)phenyl]-1H-pyrazol-3-yl]-2-methylphenyl]methyl]carbamate [Compound 135] |  |  | 86 |  | 
methyl N-[[5-[1-[2,6-difluoro-4-(2-propyn-1-yloxy)phenyl]-1H-pyrazol-3-yl]-2-methylphenyl]methyl]carbamate [Compound 30] |  |  | 98 |  | 
methyl N-[[5-[2-[2,6-difluoro-4-(1-methylethyl)phenyl]-2H-1,2,3-triazol-4-yl]-2-methylphenyl]methyl]carbamate [Compound 108] |  |  |  |  | 100
